Experiment in all cases: NCI anticancer screen, dose series, 48 h
The subject of assay [1] is U251 CNS.
Assay [2] deals with ACHN renal.
The subject of assay [3] is PC-3 prostate.
The subject of assay [4] is MDA-MB-435.
Assay [5] concerns HCT-116 colon.
For assay [6], the system named is IGROV1 ovarian.
For assay [7], the system named is UACC-62 melanoma.
Assay [8] deals with HT29 colon.

This passage reports GI50 and TGI results from PubChem BioAssay (NCI).

The structures appear in SMILES notation.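 Growth conditions: 96-well plates. Treatment: test compound, 48 hours, 5 concentrations. Analysis: linear interpolation between bracketing concentrations; unreached endpoints set to highest concentration. Abbreviation: GI50, concentration required for 50% inhibition of growth. At the TGI there is no net growth.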

For `O=C(NNc1cnccn1)c1nc2cc(F)ccc2n2cccc12`, the GI50 in assay [1] was 0.363 µM; in assay [2], 0.362 µM; in assay [3], 0.527 µM; in assay [4], 0.873 µM; in assay [5] it was 0.46 µM; in assay [6], 0.503 µM. In addition, the GI50 in assay [7] is 0.7 µM; in assay [8], 0.649 µM. Also, the TGI in assay [1], in assay [2], in assay [3], in assay [4], in assay [5] and in assay [6] was greater than 100 µM each time. Further, the TGI in assay [7] and in assay [8] was greater than 100 µM each time.
Regarding `O=C1c2ccccc2C(=O)c2c(NCCN=Cc3ccccc3O)cccc21`, the GI50 in assay [1] was 5.06 µM; in assay [2] it was 3.4 µM; in assay [3], 2.18 µM; in assay [4], 2.51 µM; in assay [5], 3.64 µM; in assay [6] it was 2.57 µM. The figures for the GI50 in assay [7] and in assay [8] were 5.59 µM and 2.26 µM, respectively. Besides, the TGI in assay [1] worked out at 19.5 µM; in assay [2] it was 16.3 µM; in assay [3], 8.1 µM; in assay [4] it was 7.4 µM; in assay [5], 15.3 µM; in assay [6], 10.3 µM.
Take `COc1cc2c3c(n(CCCN(C)CCO)c(=O)c2cc1OC)-c1cc2c(cc1C3=O)OCO2`: the GI50 in assay [1] was 0.814 µM; in assay [2], 0.277 µM; in assay [3], 8.47 µM; in assay [4], 16.6 µM; in assay [5] it was 1.9 µM; in assay [6] it was 2.47 µM. Also, the GI50 in assay [7] is 1.54 µM; in assay [8], 9.06 µM. For the same compound, the TGI in assay [1] was greater than 100 µM; in assay [2], 4.33 µM; in assay [3] it was greater than 62.6 µM; in assay [4] it was greater than 100 µM; in assay [5] it was 30.7 µM; in assay [6], greater than 55.6 µM. In addition, the TGI is 24.7 µM in assay [7] and greater than 75.2 µM in assay [8].
Turning to `NCCCn1c2c(c3ccccc3c1=O)C(=O)c1ccccc1-2`, the GI50 in assay [1] was 0.0888 µM; in assay [2], less than 0.0359 µM; in assay [3], 0.451 µM; in assay [4], 0.7 µM; in assay [5] it was 0.259 µM; in assay [6], 0.34 µM. The GI50 was 0.247 µM in assay [7] and 0.128 µM in assay [8]. For the same compound, the TGI was 1.42 µM in assay [1]; 2.98 µM in assay [3]; 3.07 µM in assay [4]; greater than 64.4 µM in assay [6]; 2.69 µM in assay [7]; 15.4 µM in assay [8].
Consider `COc1ccc2c(c1)C(C)Cc1c(ncnc1-n1cnc3ccccc31)N2C` (centres undefined), for which the GI50 in assay [1] was 0.59 µM; in assay [2], 0.635 µM; in assay [3], 0.409 µM; in assay [4], 0.2 µM; in assay [5] it was 0.494 µM; in assay [6] it was 1.41 µM. In addition, the GI50 in assay [7] was 0.735 µM; in assay [8], 0.336 µM. For the same compound, the TGI in assay [1] came to 16.2 µM; in assay [2], 27.4 µM; in assay [3], 17.5 µM; in assay [4], 0.605 µM; in assay [5] it was 12.7 µM; in assay [6], 29.1 µM. In addition, the TGI in assay [7] is 21.2 µM; in assay [8] it was 1.43 µM.
In the case of `c1ccc(NCCSc2nc3ccccc3s2)cc1`, the TGI in assay [1], in assay [2], in assay [3], in assay [4], in assay [5] and in assay [6] was greater than 100 µM in each case. The TGI in assay [7] and in assay [8] was greater than 100 µM in each case.
Regarding `COc1ccc(-c2nn(-c3cccc(Cl)c3)cc2-c2nc(N)[nH]c(=O)c2C#N)cc1`, the GI50 is 3.66 µM in assay [1]; 9.92 µM in assay [2]; 6.3 µM in assay [3]; 2.16 µM in assay [4]; 4.35 µM in assay [5]; 3.01 µM in assay [6]. For the same compound, the GI50 in assay [7] was 3.33 µM; in assay [8], 4.29 µM. In addition, the TGI in assay [1] is 18.8 µM; in assay [2] it was greater than 100 µM; in assay [3] it was greater than 100 µM; in assay [4] it was 5.48 µM; in assay [5] it was 16.2 µM; in assay [6] it was 18.1 µM. For the same compound, the TGI is 15.4 µM in assay [7] and 20 µM in assay [8].
Take `COc1ccc(-c2cc(Nc3ccnc(N4CCOCC4)n3)on2)cc1`: the GI50 was 0.329 µM in assay [1]; 0.74 µM in assay [2]; 0.241 µM in assay [3]; 0.0307 µM in assay [4]; 0.081 µM in assay [5]; 0.245 µM in assay [6]. Besides, the results for the GI50 in assay [7] and in assay [8] were 0.115 µM and 0.243 µM, respectively. Besides, the TGI is 12.7 µM in assay [1]; 13.6 µM in assay [2]; 24.2 µM in assay [3]; 0.121 µM in assay [4]; 13 µM in assay [5]; 16.9 µM in assay [6]. Further, the TGI was determined as 15.9 µM in assay [7] and 11.5 µM in assay [8].
In the case of `Cc1ccc2occ/c(=N\Nc3ccccc3)c2c1`, the TGI in assay [1], in assay [2], in assay [3], in assay [4], in assay [5] and in assay [6] was greater than 100 µM each time. In addition, the TGI in assay [7] and in assay [8] was greater than 100 µM throughout.
In the case of `Cn1cc(S(=O)(=O)N2CCC3=Cc4c(cnn4-c4ccc(F)cc4)C[C@]3(C(=O)c3cc(C(F)(F)F)ccn3)C2)cn1`, the GI50 in assay [1] was greater than 100 µM; in assay [2], greater than 100 µM; in assay [3] it was 31.4 µM; in assay [4] it was greater than 100 µM; in assay [5] it was 11.1 µM; in assay [6], 23.3 µM. Moreover, the results for the GI50 in assay [7] and in assay [8] were 29.1 µM and 89.7 µM, respectively. Further, the TGI in assay [1], in assay [2], in assay [3], in assay [4], in assay [5] and in assay [6] was greater than 100 µM throughout. In addition, the TGI in assay [7] and in assay [8] was greater than 100 µM each time.
Turning to `CCOC(=O)C1=C(N)Oc2c(sc3c(C)cccc23)C1c1ccc(F)cc1` (centres undefined), the GI50 in assay [1] was 0.58 µM; in assay [2], 0.692 µM; in assay [3] it was 0.496 µM; in assay [4], 0.21 µM; in assay [5] it was 0.429 µM; in assay [6], 0.475 µM. Moreover, the GI50 in assay [7] is 0.399 µM; in assay [8] it was 0.938 µM. Further, the TGI is 17 µM in assay [1]; 15.9 µM in assay [2]; 14.8 µM in assay [3]; 0.464 µM in assay [4]; 11.8 µM in assay [5]; 13.5 µM in assay [6]. Besides, the TGI in assay [7] came out at 13.5 µM; in assay [8], 12.8 µM.
Turning to `NCCCOc1cc(Cl)ccc1NC(=O)c1cc2ccccc2cc1OCCCN`, the GI50 in assay [1] was 1.71 µM; in assay [2], 1.48 µM; in assay [3], 1.41 µM; in assay [4], 1.8 µM; in assay [5], 1.37 µM; in assay [6] it was 0.678 µM. Further, the GI50 in assay [7] was 1.78 µM; in assay [8], 1.62 µM. Moreover, the TGI worked out at 3.24 µM in assay [1]; 2.88 µM in assay [2]; 2.83 µM in assay [3]; 3.59 µM in assay [4]; 2.8 µM in assay [5]; 2.28 µM in assay [6]. Further, the TGI in assay [7] worked out at 3.3 µM; in assay [8], 4.16 µM.
In the case of `CNC(C)[C@H]1CCC2C3CC=C4C(=O)[C@@H](NC(=O)C=C(C)C)CC[C@]4(C)C3CC[C@@]21C` (some centres undefined), the GI50 in assay [1] is 2.19 µM; in assay [2], 3.29 µM; in assay [3], 1.9 µM; in assay [4], 1.36 µM; in assay [5] it was 1.09 µM; in assay [6], 3.19 µM. Moreover, the GI50 was 1.84 µM in assay [7] and 0.358 µM in assay [8]. In addition, the TGI in assay [1] is 11.8 µM; in assay [2] it was 12.6 µM; in assay [3] it was 11.5 µM; in assay [4], 3.27 µM; in assay [5], 2.53 µM; in assay [6], 11.8 µM. Further, the TGI is 3.54 µM in assay [7] and 1.59 µM in assay [8].
With `Cn1c(=S)c2[nH]c(SCCCc3ccccc3)nc2n(C)c1=O`, the TGI in assay [1], in assay [2], in assay [3], in assay [4], in assay [5] and in assay [6] was greater than 100 µM each time. In addition, the TGI in assay [7] and in assay [8] was greater than 100 µM each time.
For the compound `Cc1noc2c1-c1ccccc1C(c1ccc(Cl)cc1)=N[C@H]2CC(N)=O`, the GI50 in assay [1] was 20 µM; in assay [2], 6.37 µM; in assay [3], 12 µM; in assay [4] it was 2.78 µM; in assay [5] it was 5.34 µM; in assay [6] it was 6.03 µM. Moreover, the GI50 in assay [7] is 0.462 µM; in assay [8] it was 1.35 µM. In addition, the TGI in assay [1], in assay [2], in assay [3], in assay [4], in assay [5] and in assay [6] was greater than 100 µM each time. Also, the TGI is greater than 58.9 µM in assay [7] and greater than 100 µM in assay [8].
As for `C=C1C(=O)OC2C1CC(OC(C)=O)/C(C)=C/CCC1(C)OC21` (centres undefined), the TGI in assay [1], in assay [2], in assay [3], in assay [4], in assay [5] and in assay [6] was greater than 100 µM throughout. Further, the TGI in assay [7] and in assay [8] was greater than 100 µM in each case.
As to `C=C1C(O)C2C(=C(C)C13CC3)C(=O)C(C)(C)C2OC` (centres undefined), the GI50 in assay [1], in assay [2], in assay [3], in assay [4], in assay [5] and in assay [6] was greater than 100 µM each time. The values for the GI50 in assay [7] and in assay [8] were 90.4 µM and greater than 100 µM, respectively. In addition, the TGI in assay [1], in assay [2], in assay [3], in assay [4], in assay [5] and in assay [6] was greater than 100 µM in each case. Further, the TGI in assay [7] and in assay [8] was greater than 100 µM throughout.
Regarding `COc1ccc(/C=C/c2cnccn2)cc1OC`, the TGI in assay [1], in assay [2], in assay [3], in assay [4], in assay [5] and in assay [6] was greater than 10 µM each time. The TGI in assay [7] and in assay [8] was greater than 10 µM throughout.
With `CN1C(NNC(=O)c2cccnc2)=NS(=O)(=O)c2cc(Cl)ccc21`, the GI50 in assay [1], in assay [2], in assay [3], in assay [4], in assay [5] and in assay [6] was greater than 100 µM in each case. The GI50 in assay [7] and in assay [8] was greater than 100 µM throughout. Moreover, the TGI in assay [1], in assay [2], in assay [3], in assay [4], in assay [5] and in assay [6] was greater than 100 µM throughout. The TGI in assay [7] and in assay [8] was greater than 100 µM throughout.
Turning to `NCCCOc1cc2ccccc2cc1C(=O)NCCCOc1cc2ccccc2cc1C(=O)Nc1ccc(Cl)cc1O`, the GI50 in assay [1] is 0.187 µM; in assay [2] it was 0.387 µM; in assay [3], 0.306 µM; in assay [4] it was 0.899 µM; in assay [5] it was 0.19 µM; in assay [6], 1.9 µM. Further, the GI50 in assay [7] was 1.58 µM; in assay [8], 0.411 µM. The TGI in assay [1] was 0.35 µM; in assay [2] it was 1.44 µM; in assay [3] it was 0.974 µM; in assay [4], 2.6 µM; in assay [5], 0.374 µM; in assay [6] it was 4.42 µM. Moreover, the results for the TGI in assay [7] and in assay [8] were 3.53 µM and 1.61 µM, respectively.
On to `CC1=NC(C)(COC(=O)C2(C)NC(C)(CO)CO2)COC1=O` (centres undefined), for which the TGI in assay [1], in assay [2], in assay [3], in assay [4], in assay [5] and in assay [6] was greater than 100 µM in each case. The TGI in assay [7] and in assay [8] was greater than 100 µM throughout.
